Test results reported in US8188085B2, “Antifungal agents” (Merck Sharp & Dohme Corp., priority 2008, dated 2012).

target: glucan synthase (GS) prepared from Candida albicans MY1055 (Candida albicans, UniProt O13428); assay: Glucan synthase inhibition (polymerization assay, 96-well); format: biochemical; conditions: GS from C. albicans MY1055; 60 min incubation at 22° C.; read-out: Candida Albicans GS IC50 (converted)
Experimental: The in vitro evaluation of glucan synthase inhibitory activity of compounds was measured in a polymerization assay in 96-well format. Each well contained 100 μL of ^3H-UDPG at 0.5 mM (6000 to 8000 dpm/nmol), 50 mM HEPES pH 7.5 (Sigma), 10% w/v glycerol (Sigma), 1.5 mg/mL bovine serum albumin (Sigma A 9647. Lot 44H0190), 25 mM KF (Fisher), 1 mM EDTA (Gibco ULTRAPURE), 25 μM GTP-γ-S, enzyme sufficient to give 3 to 6 nmoles incorporation during the 60 min incubation at 22° C., and test compound added from wells in 3-fold serial dilutions in 100% DMSO (1 μL/well). The reaction was stopped by the addition of 100 μL of 20% trichloroacetic acid. Plates were chilled for a minimum of 10 min, and precipitated glucan collected by filtration on GF/C plates (Packard UNIFILTER®-96), washed with 5 cycles of water (about 1 mL/well each cycle) using a Packard FILTERMATE HARVESTER. 40 μL/well scintillation fluid (Packard ULTIMA GOLD TM-XR) was added and the sealed plates counted in a WALLAC BETA counter in top-counting mode at an efficiency of approximately 40%.
Stock solutions were stored at 10 mg/mL in DMSO at −20° C. For each new enzyme preparation, the initial titration performed started at 1 mg/mL, which was prepared by making a 10-fold dilution in DMSO (5 μL to 50 μL). 40 μL of this stock was placed in column 12 of a round-bottomed 96-well microtiter plate. 40 μL DMSO was added to columns 1 to 11 in the same row and ten 3-fold serial dilutions performed, by transferring 20 μL from column 12 to column 11 etc., with 4 mixings before each transfer. No test compound was transferred to from column 2 to column 1. Duplicate aliquots of 1 μL of all 12 dilutions were then transferred to the side walls of a 96-well Bioblock 1.1 mL plate (Fisher brand) to create two rows.
Graphs of the primary data were created in PRISM software (the average of two determinations) using PRISM's curve fitting program (sigmoidal dose response non-linear regression). The amount of compound required to inhibit glucan synthase activity by 50% in this assay (IC50−ng/mL) was calculated.
Routine analysis was performed with glucan synthase (GS) prepared from Candida albicans MY1055 by the following procedure: MY1055 was grown in 10 liters YPD medium (10 g yeast extract, 20 g tryptone, 20 g glucose per liter) with vigorous shaking at 30° C., to early stationary phase. Cells were harvested by centrifugation, the pellet was washed and frozen at −70° C. until breakage. Thawed pellets were shaken with an equal volume of breakage buffer (50 mM HEPES pH 7.4, 10% glycerol, 1 mM EDTA, 1 mM PMSF, 1 mM DTT) and 4 times their weight of 0.5 mm acid washed glass beads for 2 hours at 4° C. Extent of breakage was assessed visually at 40× magnification. After low speed centrifugation to remove cell debris, the supernatant was centrifuged at 100,000×g for 60 min. to separate membranes plus ribosomes from cytoplasmic components. Membranes were further washed two additional times with breakage buffer using the same centrifugation conditions and finally suspended in breakage buffer at 25 to 30 mg/mL protein (Biorad) for storage at −70° C. Extraction of GS activity from membranes was performed at a protein concentration of 5 mg/mL in extraction buffer (50 mM NaPO4 pH 7.5, 0.1 M KCl, 0.1M Na citrate, 20% glycerol, 5 μM GTP-γ-S, 1 mM DTT, 1 mM PMSF, 3 μg/mL pepstatin) plus 0.25% W1 by gentle mixing at 4° C. for 60 min, followed by centrifugation at 100,000×g for 60 min. After centrifugation, clear supernatant was removed from a pellet consisting of a hard layer usually with small amounts of gelatinous unextracted membranes above it.
Trapping was initiated immediately by 5-fold dilution in trapping buffer (50 mM HEPES pH 7.5, 10 mM KF, 1 mM EDTA, 2 mg/mL BSA) plus 2.5 mM UDPG and 10 μM GTP-γ-S. After incubation at 25° C. for 60 to 90 minutes, glucan was harvested by low speed centrifugation (3,000×g, 10 min). […]

Sequence of glucan synthase (GS) prepared from Candida albicans MY1055 (O13428 1-1897): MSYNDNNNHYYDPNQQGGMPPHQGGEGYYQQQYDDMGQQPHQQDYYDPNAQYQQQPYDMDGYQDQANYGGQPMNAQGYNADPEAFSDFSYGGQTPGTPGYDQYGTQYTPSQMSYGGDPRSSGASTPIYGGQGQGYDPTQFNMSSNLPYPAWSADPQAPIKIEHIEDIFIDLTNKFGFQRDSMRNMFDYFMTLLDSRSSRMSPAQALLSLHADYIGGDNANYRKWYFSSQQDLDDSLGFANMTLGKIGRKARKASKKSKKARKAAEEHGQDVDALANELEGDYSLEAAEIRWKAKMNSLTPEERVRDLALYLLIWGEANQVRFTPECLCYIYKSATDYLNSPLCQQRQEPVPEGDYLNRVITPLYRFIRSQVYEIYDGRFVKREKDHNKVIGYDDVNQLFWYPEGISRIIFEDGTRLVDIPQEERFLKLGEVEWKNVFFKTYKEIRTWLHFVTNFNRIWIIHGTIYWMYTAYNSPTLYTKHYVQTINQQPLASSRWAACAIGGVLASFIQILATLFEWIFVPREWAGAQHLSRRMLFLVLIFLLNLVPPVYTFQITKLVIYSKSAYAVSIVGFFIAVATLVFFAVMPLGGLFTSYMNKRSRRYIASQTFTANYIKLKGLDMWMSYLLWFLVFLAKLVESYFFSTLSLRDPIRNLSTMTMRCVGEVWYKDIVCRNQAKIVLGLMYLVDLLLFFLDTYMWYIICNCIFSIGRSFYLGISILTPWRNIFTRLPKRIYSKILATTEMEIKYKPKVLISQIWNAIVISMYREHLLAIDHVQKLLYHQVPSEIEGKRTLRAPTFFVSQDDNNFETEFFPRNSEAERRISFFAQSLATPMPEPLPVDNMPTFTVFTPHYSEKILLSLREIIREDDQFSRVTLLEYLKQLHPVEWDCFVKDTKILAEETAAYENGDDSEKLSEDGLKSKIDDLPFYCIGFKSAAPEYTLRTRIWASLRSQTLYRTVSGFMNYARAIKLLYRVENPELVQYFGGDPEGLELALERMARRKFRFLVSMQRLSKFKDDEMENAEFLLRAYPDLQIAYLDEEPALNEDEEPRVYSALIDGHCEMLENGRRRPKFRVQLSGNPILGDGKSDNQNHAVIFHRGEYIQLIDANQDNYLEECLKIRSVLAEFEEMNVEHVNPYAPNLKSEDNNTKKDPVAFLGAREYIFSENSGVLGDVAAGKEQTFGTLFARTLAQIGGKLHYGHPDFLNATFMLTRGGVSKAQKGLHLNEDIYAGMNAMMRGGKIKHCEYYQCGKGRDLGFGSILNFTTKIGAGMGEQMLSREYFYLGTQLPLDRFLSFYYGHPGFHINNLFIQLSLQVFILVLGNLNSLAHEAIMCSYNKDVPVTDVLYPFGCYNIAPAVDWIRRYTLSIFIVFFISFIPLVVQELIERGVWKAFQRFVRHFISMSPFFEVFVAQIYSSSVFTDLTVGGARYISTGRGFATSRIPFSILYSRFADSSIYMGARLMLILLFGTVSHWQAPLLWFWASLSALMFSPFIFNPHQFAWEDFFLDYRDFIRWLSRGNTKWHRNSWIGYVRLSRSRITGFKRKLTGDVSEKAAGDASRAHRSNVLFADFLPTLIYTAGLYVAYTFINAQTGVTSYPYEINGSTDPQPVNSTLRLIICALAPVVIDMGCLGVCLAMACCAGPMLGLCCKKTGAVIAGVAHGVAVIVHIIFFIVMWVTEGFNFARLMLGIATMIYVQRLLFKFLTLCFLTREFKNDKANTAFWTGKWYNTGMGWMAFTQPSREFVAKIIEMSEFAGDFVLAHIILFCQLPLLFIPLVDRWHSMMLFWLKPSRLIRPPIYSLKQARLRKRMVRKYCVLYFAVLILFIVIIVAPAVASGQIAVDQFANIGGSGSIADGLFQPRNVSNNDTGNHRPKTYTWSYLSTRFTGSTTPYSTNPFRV

Row | IC50 [nM] | Structure (SMILES)
1 | 4.1 | CC(C)[C@@H](C)[C@@]1(C)CC[C@]2(C)[C@H]3CC[C@@H]4[C@@]5(COC[C@@]4(C)[C@@H](OC[C@](C)(N)C(C)(C)C)[C@H](n4ncnc4Br)C5)C3=CC[C@@]2(C)[C@@H]1C(=O)O [Example 11, (1S,4aR,6aS,7R,8R,10aR,10bR,12aR,14R,15R)-15-[[(2R)-2-amino-2,3,3-trimethylbutyl]oxy]-14-(5-bromo-1H-1,2,4-triazol-1-yl)-8-[(1R)-1,2-dimethylpropyl]-1,6,6a,7,8,9,10,10a,10b,11,12,12a-dodecahydro-1,6a,8,10a-tetramethyl-4H-1,4a-propano-2H-phenanthro[1,2-c]pyran-7-carboxylic acid]
2 | 7.13 | CNC1(CO[C@H]2[C@H](n3ncnc3Cl)C[C@@]34COC[C@]2(C)[C@@H]3CC[C@H]2C4=CC[C@@]3(C)[C@H](C(=O)O)[C@@](C)([C@H](C)C(C)C)CC[C@]23C)CCOCC1 [Example 14, (1S,4aR,6aS,7R,8R,10aR,10bR,12aR,14R,15R)-14-(5-chloro-1H-1,2,4-triazol-1-yl)-8-[(1R)-1,2-dimethylpropyl]-15-[[tetrahydro-4-(methylamino)-2H-pyran-4-yl]methoxy]-1,6,6a,7,8,9,10,10a,10b,11,12,12a-dodecahydro-1,6a,8,10a-tetramethyl-4H-1,4a-propano-2H-phenanthro[1,2-c]pyran-7-carboxylic acid]
3 | 33.1 | CNC1(CO[C@H]2[C@H](n3cncn3)C[C@@]34COC[C@]2(C)[C@@H]3CC[C@H]2C4=CC[C@@]3(C)[C@H](C(=O)O)[C@@](C)([C@H](C)C(C)C)CC[C@]23C)CCCCC1 [Example 16, (1S,4aR,6aS,7R,8R,10aR,10bR,12aR,14R,15R)-8-[(1R)-1,2-dimethylpropyl]-15-[[1-(methylamino)cyclohexyl]methoxy]-14-(1H-1,2,4-triazol-1-yl)-1,6,6a,7,8,9,10,10a,10b,11,12,12a-dodecahydro-1,6a,8,10a-tetramethyl-4H-1,4a-propano-2H-phenanthro[1,2-c]pyran-7-carboxylic acid]
4 | 12 | CC(C)[C@@H](C)[C@@]1(C)CC[C@]2(C)[C@H]3CC[C@@H]4[C@@]5(COC[C@@]4(C)[C@@H](OC[C@@](C)(C(C)C)N(C)C)[C@H](n4cncn4)C5)C3=CC[C@@]2(C)[C@@H]1C(=O)O [Example 18, (1S,4aR,6aS,7R,8R,10aR,10bR,12aR,14R,15R)-15-[[(2R)-2-(dimethylamino)-2,3-dimethylbutyl]oxy]-8-[(1R)-1,2-dimethylpropyl]-14-(1H-1,2,4-triazol-1-yl)-1,6,6a,7,8,9,10,10a,10b,11,12,12a-dodecahydro-1,6a,8,10a-tetramethyl-4H-1,4a-propano-2H-phenanthro[1,2-c]pyran-7-carboxylic acid]
5 | 16.8 | CC(C)[C@@H](C)[C@@]1(C)CC[C@]2(C)[C@H]3CC[C@@H]4[C@@]5(COC[C@@]4(C)[C@@H](OC[C@H](N)C(C)(C)C)[C@H](n4cnc(N)n4)C5)C3=CC[C@@]2(C)[C@@H]1C(=O)O [Example 24, (1S,4aR,6aS,7R,8R,10aR,10bR,12aR,14R,15R)-15-[[(2R)-2-amino-3,3-dimethylbutyl]oxy]-14-(3-amino-1H-1,2,4-triazol-1-yl)-8-[(1R)-1,2-dimethylpropyl]-1,6,6a,7,8,9,10,10a,10b,11,12,12a-dodecahydro-1,6a,8,10a-tetramethyl-4H-1,4a-propano-2H-phenanthro[1,2-c]pyran-7-carboxylic acid]
6 | 16.1 | CC(C)[C@@H](C)[C@@]1(C)CC[C@]2(C)[C@H]3CC[C@@H]4[C@@]5(COC[C@@]4(C)[C@@H](OC[C@](C)(C(C)C)N(C)C)[C@H](n4cnc(N)n4)C5)C3=CC[C@@]2(C)[C@@H]1C(=O)O [Example 27, (1S,4aR,6aS,7R,8R,10aR,10bR,12aR,14R,15R)-14-(3-amino-1H-1,2,4-triazol-1-yl)-15-[[(2S)-2-(dimethylamino)-2,3-dimethylbutyl]oxy]-8-[(1R)-1,2-dimethylpropyl]-1,6,6a,7,8,9,10,10a,10b,11,12,12a-dodecahydro-1,6a,8,10a-tetramethyl-4H-1,4a-propano-2H-phenanthro[1,2-c]pyran-7-carboxylic acid]
